Measurements published in patent US12448394B2, “Heterocyclic pyrazole derivatives as type III receptor tyrosine kinase inhibitors” (DEVELOPMENT CENTER FOR BIOTECHNOLOGY, priority 2019, dated 2025).

Tests used:
[1] = tested on: phosphorylation of FLT3 and its down-stream effector STAT5; assay: Western blotting of p-FLT3 and p-STAT5 in MV4-11 cells; type: cell-based; settings: Homo sapiens; at 30 nM treatment, 3 hours, FLT3-ITD positive MV4-11 leukemia cells; read-out: inhibition activity against phosphorylation of FLT3 and its down-stream effector STAT5
In short: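 MV4-11 cells held overnight in IMDM with 0.1% FBS, then 3 million cells treated with compound for 3 h. Whole lysates immunoblotted for p-FLT3 (Tyr-591), p-STAT5 (Tyr-694) and actin. Band intensities at 30 nM compared to DMSO control; % inhibition = (1 − relative intensity) × 100.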

PDGFRα kinase = target: T1, PDGFRα kinase (Homo sapiens, UniProt P16234); assay: PDGFRα kinase assay (AlphaScreen); type: biochemical; settings: read-out: Ranking of IC50 values, PDGFRα
T1 construct: purchased SignalChem
T1 sequence (P16234 24-1089): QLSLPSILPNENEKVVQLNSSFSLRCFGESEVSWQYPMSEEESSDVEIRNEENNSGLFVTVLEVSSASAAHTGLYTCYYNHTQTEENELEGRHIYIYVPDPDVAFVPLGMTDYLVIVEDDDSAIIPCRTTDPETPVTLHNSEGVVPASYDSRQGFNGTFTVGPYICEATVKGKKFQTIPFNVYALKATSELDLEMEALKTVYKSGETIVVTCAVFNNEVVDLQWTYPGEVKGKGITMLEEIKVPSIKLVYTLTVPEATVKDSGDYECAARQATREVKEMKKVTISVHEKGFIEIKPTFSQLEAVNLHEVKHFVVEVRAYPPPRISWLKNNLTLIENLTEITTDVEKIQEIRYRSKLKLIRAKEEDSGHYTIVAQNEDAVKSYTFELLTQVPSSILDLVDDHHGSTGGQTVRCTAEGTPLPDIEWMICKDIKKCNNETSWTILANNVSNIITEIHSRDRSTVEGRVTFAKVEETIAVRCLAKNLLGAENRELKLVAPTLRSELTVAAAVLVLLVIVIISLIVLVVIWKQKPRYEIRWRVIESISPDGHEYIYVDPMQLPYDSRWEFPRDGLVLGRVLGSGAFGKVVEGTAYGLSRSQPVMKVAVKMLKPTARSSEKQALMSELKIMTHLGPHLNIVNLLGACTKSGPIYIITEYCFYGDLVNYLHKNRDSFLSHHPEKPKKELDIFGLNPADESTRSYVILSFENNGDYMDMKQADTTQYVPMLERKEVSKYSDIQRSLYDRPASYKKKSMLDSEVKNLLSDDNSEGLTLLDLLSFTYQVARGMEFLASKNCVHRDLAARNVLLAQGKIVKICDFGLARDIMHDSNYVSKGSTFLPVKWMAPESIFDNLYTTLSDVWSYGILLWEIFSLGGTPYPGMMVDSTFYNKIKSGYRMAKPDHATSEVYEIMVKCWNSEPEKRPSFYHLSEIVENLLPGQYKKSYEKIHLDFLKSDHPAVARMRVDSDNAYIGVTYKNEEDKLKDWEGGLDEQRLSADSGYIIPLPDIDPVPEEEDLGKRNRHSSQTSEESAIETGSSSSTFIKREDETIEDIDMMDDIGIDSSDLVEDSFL
In short: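 IC50 values came from duplicate serial dilutions, with product read by AlphaScreen. The reaction ran 30 min at 30 °C, then EDTA stop: 1.5 ng recombinant enzyme, biotin-poly(Glu4:Tyr1) substrate, 10 μM ATP, 10 mM MOPS pH 7.0, 10 mM MgCl2.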

FLT3 kinase = target: T2, FLT3 kinase (Homo sapiens, UniProt P36888); assay: FLT3 kinase assay (AlphaScreen); type: biochemical; settings: read-out: Ranking of IC50 values, FLT3
T2 construct: purchased SignalChem
T2 sequence (P36888 27-993): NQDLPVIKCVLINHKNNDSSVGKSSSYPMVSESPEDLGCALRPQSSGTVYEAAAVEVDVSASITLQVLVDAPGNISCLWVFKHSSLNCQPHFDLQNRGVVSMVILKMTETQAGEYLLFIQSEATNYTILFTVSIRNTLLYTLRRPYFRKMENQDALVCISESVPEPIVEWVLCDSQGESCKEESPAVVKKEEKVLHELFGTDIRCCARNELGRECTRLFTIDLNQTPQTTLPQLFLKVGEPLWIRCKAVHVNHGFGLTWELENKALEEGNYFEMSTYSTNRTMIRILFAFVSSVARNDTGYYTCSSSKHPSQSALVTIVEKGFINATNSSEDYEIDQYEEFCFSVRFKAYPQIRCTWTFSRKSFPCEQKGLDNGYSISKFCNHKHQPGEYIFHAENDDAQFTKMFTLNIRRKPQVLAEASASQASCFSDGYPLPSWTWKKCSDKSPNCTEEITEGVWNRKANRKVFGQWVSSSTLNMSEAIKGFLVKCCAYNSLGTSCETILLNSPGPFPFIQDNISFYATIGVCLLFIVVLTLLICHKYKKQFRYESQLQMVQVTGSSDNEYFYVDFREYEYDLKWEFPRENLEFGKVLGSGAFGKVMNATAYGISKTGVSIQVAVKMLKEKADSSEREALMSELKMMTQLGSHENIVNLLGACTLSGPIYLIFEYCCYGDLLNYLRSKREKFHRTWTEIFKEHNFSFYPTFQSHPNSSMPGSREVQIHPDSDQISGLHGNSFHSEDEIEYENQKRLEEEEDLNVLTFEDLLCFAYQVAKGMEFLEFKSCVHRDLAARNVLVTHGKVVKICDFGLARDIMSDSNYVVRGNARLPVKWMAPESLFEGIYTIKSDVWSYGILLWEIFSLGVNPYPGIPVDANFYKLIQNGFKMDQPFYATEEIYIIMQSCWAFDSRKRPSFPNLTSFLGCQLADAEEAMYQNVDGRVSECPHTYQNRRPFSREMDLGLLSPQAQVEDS
In short: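 AlphaScreen detection of biotin-poly(Glu4:Tyr1) phosphorylation by 1.5 ng recombinant FLT3 (10 μM ATP, pH 7.0 MOPS, 10 mM MgCl2; 30 °C, 30 min, EDTA quench). IC50 values derived from serially diluted compound tested in duplicate.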

## Cn1ncc2ccc(-c3n[nH]c4c3Cc3sc(-c5cc(F)c(CN6CCOCC6)c(F)c5)cc3-4)cc21 [Compound 53, 4-(2,6-difluoro-4-(3-(1-methyl-1H-indazol-6-yl)-1,4-dihydrothieno [2′,3′:4,5]cyclopenta [1,2-c]pyrazol-6-yl)benzyl)morpholine]
[1]
  inhibition at 0.03 µM: > 50%
PDGFRα kinase
  IC50: 0.03 to 0.1 µM
FLT3 kinase
  IC50: < 0.001 µM

## C[C@@H]1CN(Cc2ccc(-c3cc4c(s3)Cc3c(-c5ccc6cnn(C)c6c5)n[nH]c3-4)cc2)C[C@H](C)O1 [Compound 54, (2S,6R)-2,6-dimethyl-4-(4-(3-(1-methyl-1H-indazol-6-yl)-1,4-dihydro-thieno[2′,3′:4,5]cyclopenta [1,2-c]pyrazol-6-yl)benzyl)morpholine]
[1]
  inhibition at 0.03 µM: > 50%
PDGFRα kinase
  IC50: 0.001 to 0.01 µM
FLT3 kinase
  IC50: < 0.001 µM

## Cn1ncc2ccc(-c3n[nH]c4c3Cc3sc(-c5cc(C(=O)N6CCOCC6)ccn5)cc3-4)cc21 [Compound 56, (2-(3-(1-methyl-1H-indazol-6-yl)-1,4-dihydro-thieno[2′,3′:4,5]cyclopenta [1,2-c]pyrazol-6-yl)pyridin-4-yl)(morpholino) methanone]
[1]
  inhibition at 0.03 µM: > 50%
PDGFRα kinase
  IC50: 0.001 to 0.01 µM
FLT3 kinase
  IC50: 0.001 to 0.01 µM

## Cn1ncc2ccc(-c3n[nH]c4c3Cc3sc(C5=CCN(C(=O)N6CCOCC6)CC5)cc3-4)cc21 [Compound 57, (4-(3-(1-methyl-1H-indazol-6-yl)-1,4-dihydro-thieno[2′,3′:4,5]cyclopenta [1,2-c]pyrazol-6-yl)-3,6-dihydropyridin-1(2H)-yl) (morpholino)methanone]
[1]
  inhibition at 0.03 µM: > 50%
PDGFRα kinase
  IC50: 0.01 to 0.03 µM
FLT3 kinase
  IC50: < 0.001 µM

## Cn1ncc2ccc(-c3n[nH]c4c3Cc3sc(C5CCN(C(=O)OC(C)(C)C)CC5)cc3-4)cc21 [Compound 58, tert-butyl-4-(3-(1-methyl-1H-indazol-6-yl)-1,4-dihydrothieno[2′,3′:4,5]cyclopenta[1,2-c]pyrazol-6-yl)piperidine-1-carboxylate]
[1]
  inhibition at 0.03 µM: > 50%
PDGFRα kinase
  IC50: 0.03 to 0.1 µM
FLT3 kinase
  IC50: 0.001 to 0.01 µM

## Cn1ncc2ccc(-c3n[nH]c4c3Cc3sc(-c5ccc(CN6CCOCC6=O)cc5)cc3-4)cc21 [Compound 59, 4-(4-(3-(1-methyl-1H-indazol-6-yl)-1,4-dihydro-thieno[2′,3′:4,5]cyclopenta [1,2-c]pyrazol-6-yl)benzyl)morpholin-3-one]
[1]
  inhibition at 0.03 µM: > 50%
PDGFRα kinase
  IC50: 0.001 to 0.01 µM
FLT3 kinase
  IC50: < 0.001 µM

## Cn1ncc2ccc(-c3n[nH]c4c3Cc3sc(-c5csc(C(=O)N6CCOCC6)n5)cc3-4)cc21 [Compound 60, (4-(3-(1-methyl-1H-indazol-6-yl)-1,4-dihydro-thieno[2′,3′:4,5]cyclopenta [1,2-c]pyrazol-6-yl)thiazol-2-yl)(morpholino) methanone]
[1]
  inhibition at 0.03 µM: > 50%
PDGFRα kinase
  IC50: 0.001 to 0.01 µM
FLT3 kinase
  IC50: < 0.001 µM

## Cn1ncc2ccc(-c3n[nH]c4c3Cc3sc(-c5ccc(CN6CCCCC6=O)cc5)cc3-4)cc21 [Compound 61, 1-(4-(3-(l-methyl-1H-indazol-6-yl)-1,4-dihydro-thieno[2′,3′:4,5]cyclopenta [1,2-c]pyrazol-6-yl)benzyl)piperidin-2-one]
[1]
  inhibition at 0.03 µM: > 50%
PDGFRα kinase
  IC50: 0.001 to 0.01 µM
FLT3 kinase
  IC50: 0.001 to 0.01 µM

## Cn1ncc2ccc(-c3n[nH]c4c3Cc3sc(-c5ccc(CN6CCNC(=O)C6)cc5)cc3-4)cc21 [Compound 63, 4-(4-(3-(1-methyl-1H-indazol-6-yl)-1,4-dihydro-thieno[2′,3′:4,5]cyclopenta [1,2-c]pyrazol-6-yl)benzyl)piperazin-2-one]
[1]
  inhibition at 0.03 µM: > 50%
PDGFRα kinase
  IC50: 0.001 to 0.01 µM
FLT3 kinase
  IC50: 0.001 to 0.01 µM

## Cn1ncc2ccc(-c3n[nH]c4c3Cc3sc(-c5ccc(CN6CCCC6=O)cc5)cc3-4)cc21 [Compound 64, 1-(4-(3-(1-methyl-1H-indazol-6-yl)-1,4-dihydro-thieno[2′,3′:4,5]cyclopenta [1,2-c]pyrazol-6-yl)benzyl)pyrrolidin-2-one]
[1]
  inhibition at 0.03 µM: > 50%
PDGFRα kinase
  IC50: 0.01 to 0.03 µM
FLT3 kinase
  IC50: 0.001 to 0.01 µM

## CC1C(=O)N(C)CCN1Cc1ccc(-c2cc3c(s2)Cc2c(-c4ccc5cnn(C)c5c4)n[nH]c2-3)cc1 (stereo not drawn) [Compound 65, 1,3-dimethyl-4-(4-(3-(1-methyl-1H-indazol-6-yl)-1,4-dihydrothieno [2′,3′:4,5]cyclopenta [1,2-c]pyrazol-6-yl)benzyl)piperazin-2-one]
[1]
  inhibition at 0.03 µM: > 50%
PDGFRα kinase
  IC50: 0.001 to 0.01 µM
FLT3 kinase
  IC50: 0.001 to 0.01 µM

## Cn1ncc2ccc(-c3n[nH]c4c3Cc3sc(-c5ccc(CCN6CCOCC6=O)cc5)cc3-4)cc21 [Compound 66, 4-(4-(3-(1-methyl-1H-indazol-6-yl)-1,4-dihydro-thieno[2′,3′:4,5]cyclopenta [1,2-c]pyrazol-6-yl)phenethyl)morpholin-3-one]
[1]
  inhibition at 0.03 µM: > 50%
PDGFRα kinase
  IC50: > 1 µM
FLT3 kinase
  IC50: < 0.001 µM

## Cn1ncc2ccc(-c3n[nH]c4c3Cc3sc(-c5ccc(OCCN6CCOCC6)cc5)cc3-4)cc21 [Compound 69, 4-(2-(4-(3-(1-methyl-1H-indazol-6-yl)-1,4-dihydro-thieno[2′,3′:4,5]cyclopenta [1,2-c]pyrazol-6-yl)phenoxy)ethyl)morpholine]
[1]
  inhibition at 0.03 µM: > 50%
PDGFRα kinase
  IC50: 0.01 to 0.03 µM
FLT3 kinase
  IC50: < 0.001 µM

## Cn1ncc2ccc(-c3n[nH]c4c3Cc3sc(C#CCN5CCOCC5)cc3-4)cc21 [Compound 71, 4-(3-(3-(1-methyl-1H-indazol-6-yl)-1,4-dihydro-thieno[2′,3′:4,5]cyclopenta [1,2-c]pyrazol-6-yl)prop-2-yn-1-yl)morpholine]
[1]
  inhibition at 0.03 µM: > 50%
PDGFRα kinase
  IC50: 0.03 to 0.1 µM
FLT3 kinase
  IC50: 0.001 to 0.01 µM

## Cn1ncc2ccc(-c3n[nH]c4c3Cc3sc(-c5ccc(NC6CCOCC6)cc5)cc3-4)cc21 [Compound 72, N-(4-(3-(1-methyl-1H-indazol-6-yl)-1,4-dihydro-thieno[2′,3′:4,5]cyclopenta [1,2-c]pyrazol-6-yl)phenyl)tetrahydro-2H-pyran-4-amine]
[1]
  inhibition at 0.03 µM: > 50%
PDGFRα kinase
  IC50: 0.01 to 0.03 µM
FLT3 kinase
  IC50: 0.001 to 0.01 µM

## C[C@@H]1COCCN1Cc1ccc(-c2cc3c(s2)Cc2c(-c4ccc5cnn(C)c5c4)n[nH]c2-3)cc1 [Compound 74, (R)-3-methyl-4-(4-(3-(1-methyl-1H-indazol-6-yl)-1,4-dihydrothieno [2′,3′:4,5]cyclopenta [1,2-c]pyrazol-6-yl)benzyl)morpholine]
[1]
  inhibition at 0.03 µM: > 50%
PDGFRα kinase
  IC50: 0.001 to 0.01 µM
FLT3 kinase
  IC50: < 0.001 µM

## C[C@H]1COCCN1Cc1ccc(-c2cc3c(s2)Cc2c(-c4ccc5cnn(C)c5c4)n[nH]c2-3)cc1 [Compound 75, (S)-3-methyl-4-(4-(3-(1-methyl-1H-indazol-6-yl)-1,4-dihydrothieno [2′,3′:4,5]cyclopenta [1,2-c]pyrazol-6-yl)benzyl)morpholine]
[1]
  inhibition at 0.03 µM: > 50%
PDGFRα kinase
  IC50: 0.001 to 0.01 µM
FLT3 kinase
  IC50: < 0.001 µM

## Cn1ncc2ccc(-c3n[nH]c4c3Cc3sc(N5CCOCC5)cc3-4)cc21 [Compound 78, 4-(3-(1-methyl-1H-indazol-6-yl)-1,4-dihydro-thieno[2′,3′:4,5]cyclopenta [1,2-c]pyrazol-6-yl) morpholine]
[1]
  inhibition at 0.03 µM: > 50%
PDGFRα kinase
  IC50: 0.001 to 0.01 µM
FLT3 kinase
  IC50: < 0.001 µM

## Cn1ncc2ccc(-c3n[nH]c4c3Cc3sc(N5CCOCC5=O)cc3-4)cc21 [Compound 79, 4-(3-(1-methyl-1H-indazol-6-yl)-1,4-dihydro-thieno[2′,3′:4,5]cyclopenta [1,2-c]pyrazol-6-yl) morpholin-3-one]
[1]
  inhibition at 0.03 µM: > 50%
PDGFRα kinase
  IC50: 0.001 to 0.01 µM
FLT3 kinase
  IC50: < 0.001 µM

## Cn1ncc2ccc(-c3n[nH]c4c3Cc3sc(-c5ccc(CN6CCC(N7CCOCC7)CC6)cc5)cc3-4)cc21 [Compound 80, 4-(1-(4-(3-(1-methyl-1H-indazol-6-yl)-1,4-dihydro-thieno[2′,3′:4,5]cyclopenta [1,2-c]pyrazol-6-yl)benzyl)piperidin-4-yl) morpholine]
[1]
  inhibition at 0.03 µM: > 50%
PDGFRα kinase
  IC50: 0.001 to 0.01 µM
FLT3 kinase
  IC50: < 0.001 µM
